Values quoted from earlier work, collected in US20060134172A1, “Agents which regulate, inhibit, or modulate the activity and/or expression of lysyl oxidase (LOX) and LOX-like proteases as a unique means to both lower intraocular pressure and treat glaucomatous retinopathies/optic neuropathies” (Alcon, Inc., priority 2004, published 2006).

Molecular target: T1, lysyl oxidase (Homo sapiens, UniProt P28300)
T1 sequence (P28300 169-417): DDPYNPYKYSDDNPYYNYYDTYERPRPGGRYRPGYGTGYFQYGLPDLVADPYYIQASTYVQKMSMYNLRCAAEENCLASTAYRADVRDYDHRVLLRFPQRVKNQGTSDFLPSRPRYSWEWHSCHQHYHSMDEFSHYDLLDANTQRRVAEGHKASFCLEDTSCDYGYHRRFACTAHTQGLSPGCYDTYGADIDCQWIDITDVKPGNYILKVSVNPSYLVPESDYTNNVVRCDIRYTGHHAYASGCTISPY
Settings: known from U.S. Pat. No. 4,444,787

Compound: N#CCCN [β-aminopropionitrile (BAPN), β-aminopropionitrile]
- in vitro inhibition of lysyl oxidase: inhibition
